In ChEMBL document CHEMBL3271937, “Isoquinolines. 6. Potential central nervous system antitumor agents. Nitrogen mustards of 3-amino-4-(p-aminophenyl)isoquinoline” (J Med Chem, 1977) one finds TGI, Activity and logP data, which are given here for seven compounds.

Calls of active or inactive are those of the source. The calls are words filed in the database; no cut-off is given here.

The test system of series [1] is L1210. The series is described as follows: Antitumor activity against mouse L1210 cells allografted in mouse assessed as tumor growth inhibition at 400 mg/kg, ip. Also on record: dose 400 mg/kg. Type of series: functional, organism-based.
The subject of series [2] is Mus musculus. The experiment in a line: Toxicity in mouse allografted with mouse L1210 cells at 25 to 400 mg/kg, ip. Type of series: organism-based. Also on record: dose 25-400 mg/kg, route intraperitoneal. The conditions noted are these: in vivo.
Series [3] is described as follows: Octanol-water partition coefficient, log P of the compound. Type of series: physicochemical.
Series [4] deals with Mus musculus. The series is described as follows: Toxicity in mouse allografted with mouse L1210 cells at 200 mg/kg, ip. Type of series: organism-based. Also on record: dose 200 mg/kg, route intraperitoneal. Particulars: in vivo.

Take `CC(=O)Nc1ncc2ccccc2c1-c1ccc(NC(=O)CCN(CCCl)CCCl)cc1`: in series [1], the TGI result was “inactive”. Further, the Activity result in series [2] is listed as “Non-toxic”.

One may read the logP as a log measure of how a compound divides between an organic and an aqueous phase. Read a low logP as lower lipophilicity. With `Nc1ccc(-c2c(N)ncc3ccccc23)cc1`, the logP in series [3] is 2.58.

As to `CC(=O)Nc1nc(Br)c2ccccc2c1-c1ccc(N(CCCl)CCCl)cc1.Cl`, the TGI result in series [1] was “inactive”. In series [2], the Activity result is on record as “Non-toxic”.

With `CC(=O)Nc1ncc2ccccc2c1-c1ccc(NC(=O)CN(CCCl)CCCl)cc1`, the TGI result in series [1] is “inactive”. The lipophilicity (logP) in series [3] was 3.87. Moreover, the Activity entry in series [2] is on record as “Non-toxic”.

In the case of `CCNc1ncc2ccccc2c1-c1ccc(NC(=O)CCN(CCCl)CCCl)cc1.Cl`, the TGI entry in series [1] is “inactive”. For the same compound, in series [3], the logP worked out at 7.43. Moreover, the Activity result in series [4] was “Toxic”.

In the case of `Nc1ncc2ccccc2c1-c1ccc(NC(=O)CN(CCCl)CCCl)cc1`, the TGI entry in series [1] is “inactive”. The Activity entry in series [2] was “Non-toxic”.

Take `CC(=O)Nc1ncc2ccccc2c1-c1ccc(N(CCCl)CCCl)cc1`: in series [1], the TGI result is “inactive”. The Activity entry in series [2] is listed as “Non-toxic”.
